We go through 14 compounds from patent US20250179103A1, “6-OXODECAHYDROPYRROLO[1,2-A][1,5]DIAZOCINE AND 6-OXODECAHYDRO-4H-PYRROLO[2,1-D][1,5]THIAZOCINE DERIVATIVES AS STAT3 AND STAT6 MODULATORS FOR THE TREATMENT OF CANCER AND INFLAMMATORY CONDITIONS” (Recludix Pharma, Inc., priority 2022, published 2025).

Usually IC50 stands for the concentration that gives 50% inhibition.

Test [1] concerns the target T1, Recombinant STAT3 protein (STAT3(G127-I722)) (Homo sapiens, UniProt P40763).
T1 construct: Recombinant STAT3 protein (STAT3(G127-I722))
The test can be described thus: STAT3 Fluorescence Polarization (FP) Assay. Format: binding. The settings on record: STAT3(G127-I722) 25 nM, probe 5-FAM-GpYLPQTV-NH2 2 nM, 45-minute incubation. An outline of the steps:
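STAT3(G127-I722), 25 nM, was mixed with 2 nM 5-FAM-GpYLPQTV-NH2 probe in HEPES pH 7.4 buffer with 1% DMSO and serially diluted compound. FP (mP) was read after 45 min at room temperature. IC50 came from nonlinear regression.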

In test [2] the target is T2, Recombinant STAT6 protein (STAT6(W123-T658)) (Homo sapiens, UniProt P42226).
T2 construct: Recombinant STAT6 protein (STAT6(W123-T658))
T2 sequence (P42226 123-658): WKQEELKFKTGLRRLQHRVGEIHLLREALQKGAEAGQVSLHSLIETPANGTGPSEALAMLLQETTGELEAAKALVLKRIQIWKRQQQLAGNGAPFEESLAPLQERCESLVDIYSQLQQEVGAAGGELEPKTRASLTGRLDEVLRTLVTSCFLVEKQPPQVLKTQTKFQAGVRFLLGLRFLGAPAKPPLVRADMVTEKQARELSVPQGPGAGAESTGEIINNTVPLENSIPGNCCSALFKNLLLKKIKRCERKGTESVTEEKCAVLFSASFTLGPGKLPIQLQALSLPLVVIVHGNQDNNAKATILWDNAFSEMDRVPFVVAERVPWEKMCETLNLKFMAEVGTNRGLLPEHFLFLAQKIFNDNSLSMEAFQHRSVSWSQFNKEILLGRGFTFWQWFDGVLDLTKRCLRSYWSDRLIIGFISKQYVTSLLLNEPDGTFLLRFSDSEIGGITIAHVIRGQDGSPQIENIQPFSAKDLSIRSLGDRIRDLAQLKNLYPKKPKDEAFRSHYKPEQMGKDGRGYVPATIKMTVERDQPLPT
Briefly: STAT6 Fluorescence Polarization (FP) Assay. Format: binding. The settings on record: STAT6(W123-T658) 250 nM, probe 5-FAM-ApYKPFQDLI-NH2 2 nM, 45-minute incubation. The gist of the method: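 Displacement of a fluorescent phosphotyrosine peptide (5-FAM-ApYKPFQDLI-NH2, 2 nM) from STAT6(W123-T658) (250 nM), 1% DMSO, pH 7.4 HEPES buffer. After 45 min at room temperature, polarization (mP) was plotted versus log compound concentration and fitted by nonlinear regression to give IC50.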
Background: Fluorescence polarisation rises when a labelled molecule tumbles more slowly, as on binding a larger partner.

T1 sequence (P40763 127-722): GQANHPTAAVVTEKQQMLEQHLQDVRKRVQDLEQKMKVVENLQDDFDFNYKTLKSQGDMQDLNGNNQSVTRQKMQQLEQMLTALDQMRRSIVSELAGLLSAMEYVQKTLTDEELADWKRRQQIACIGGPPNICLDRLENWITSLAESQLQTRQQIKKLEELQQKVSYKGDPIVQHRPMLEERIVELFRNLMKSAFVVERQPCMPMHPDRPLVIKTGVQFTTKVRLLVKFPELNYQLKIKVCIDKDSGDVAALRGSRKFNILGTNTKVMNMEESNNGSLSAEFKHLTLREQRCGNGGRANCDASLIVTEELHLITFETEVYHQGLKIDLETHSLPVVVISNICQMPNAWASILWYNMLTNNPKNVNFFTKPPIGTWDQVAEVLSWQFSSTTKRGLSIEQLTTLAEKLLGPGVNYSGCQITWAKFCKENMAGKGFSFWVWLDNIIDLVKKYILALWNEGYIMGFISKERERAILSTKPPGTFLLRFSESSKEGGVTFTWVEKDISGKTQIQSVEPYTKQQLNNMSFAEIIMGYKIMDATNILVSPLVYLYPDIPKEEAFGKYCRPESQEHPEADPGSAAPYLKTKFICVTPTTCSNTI

As to `CC(=O)N1CC[C@H]2CC[C@@H](C(=O)N(C)c3ccc(C(C)(C)c4ccccc4)cc3)N2C(=O)[C@@H](NC(=O)c2cc3cc(C(F)(F)P(=O)(O)O)ccc3s2)C1` [Compound 155, ((2-(((5S,8S,10aR)-3-acetyl-8-(methyl(4-(2-phenylpropan-2-yl)phenyl)carbamoyl)-6-oxodecahydropyrrolo[1,2-a][1,5]diazocin-5-yl)carbamoyl)benzo[b]thiophen-5-yl)difluoromethyl)phosphonic acid], the figures for the IC50 in test [1] and in test [2] were 1 to 10 µM and 0.3 to 3 µM, respectively.
With `CC(=O)N1CC[C@H]2CC[C@@H](C(=O)N(C)c3ccc(C(C)(C)CO)cc3)N2C(=O)[C@@H](NC(=O)c2cc3cc(C(F)(F)P(=O)(O)O)ccc3s2)C1` [Compound 156, ((2-(((5S,8S,10aR)-3-acetyl-8-((4-(1-hydroxy-2-methylpropan-2-yl)phenyl)(methyl)carbamoyl)-6-oxodecahydropyrrolo[1,2-a][1,5]diazocin-5-yl)carbamoyl)benzo[b]thiophen-5-yl)difluoromethyl)phosphonic acid], the figures for the IC50 in test [1] and in test [2] were 1 to 10 µM and 0.3 to 3 µM, respectively.
On the same counts, the results for `CC(=O)N1CC[C@H]2CC[C@@H](C(=O)Nc3ccc4cn(C)nc4c3)N2C(=O)[C@@H](NC(=O)c2cc3cc(C(F)(F)P(=O)(O)O)ccc3s2)C1` [Compound 157, ((2-(((5S,8S,10aR)-3-acetyl-8-((2-methyl-2H-indazol-6-yl)carbamoyl)-6-oxodecahydropyrrolo[1,2-a][1,5]diazocin-5-yl)carbamoyl)benzo[b]thiophen-5-yl)difluoromethyl)phosphonic acid] are 1 to 10 µM and 0.3 to 3 µM.
Consider `CC(=O)N1CC[C@H]2CC[C@@H](C(=O)Nc3ccc4cnccc4c3)N2C(=O)[C@@H](NC(=O)c2cc3cc(C(F)(F)P(=O)(O)O)ccc3s2)C1` [Compound 158, ((2-(((5S,8S,10aR)-3-acetyl-8-(isoquinolin-6-ylcarbamoyl)-6-oxodecahydropyrrolo[1,2-a][1,5]diazocin-5-yl)carbamoyl)benzo[b]thiophen-5-yl)difluoromethyl)phosphonic acid], for which the concentration for half-maximal inhibition (IC50) in test [1] was 0.1 to 1 µM; in test [2], 0.3 to 3 µM.
For `CCC(C)(C)c1ccc(N(C)C(=O)[C@@H]2CC[C@@H]3CCN(C(C)=O)C[C@H](NC(=O)c4cc5cc(C(F)(F)P(=O)(O)O)ccc5s4)C(=O)N32)cc1` [Compound 159, ((2-(((5S,8S,10aR)-3-acetyl-8-(methyl(4-(tert-pentyl)phenyl)carbamoyl)-6-oxodecahydropyrrolo[1,2-a][1,5]diazocin-5-yl)carbamoyl)benzo[b]thiophen-5-yl)difluoromethyl)phosphonic acid], the IC50 in test [1] lay within 1 to 10 µM; in test [2], 0.3 to 3 µM.
On the same counts, the results for `CC(=O)N1CC[C@H]2CC[C@@H](C(=O)N(C)c3ccc(C(C)(C)C)c(Cl)c3)N2C(=O)[C@@H](NC(=O)c2cc3cc(C(F)(F)P(=O)(O)O)ccc3s2)C1` [Compound 160, ((2-(((5S,8S,10aR)-3-acetyl-8-((4-(tert-butyl)-3-chlorophenyl)(methyl)carbamoyl)-6-oxodecahydropyrrolo[1,2-a][1,5]diazocin-5-yl)carbamoyl)benzo[b]thiophen-5-yl)difluoromethyl)phosphonic acid] are 1 to 10 µM and 0.3 to 3 µM.
As to `CC(=O)N1CC[C@H]2CC[C@@H](C(=O)Nc3ccc4c(cnn4C)c3)N2C(=O)[C@@H](NC(=O)c2cc3cc(C(F)(F)P(=O)(O)O)ccc3s2)C1` [Compound 161, ((2-(((5S,8S,10aR)-3-acetyl-8-((1-methyl-1H-indazol-5-yl)carbamoyl)-6-oxodecahydropyrrolo[1,2-a][1,5]diazocin-5-yl)carbamoyl)benzo[b]thiophen-5-yl)difluoromethyl)phosphonic acid], the results for the IC50 in test [1] and in test [2] were 1 to 10 µM and 0.3 to 3 µM, respectively.
In the case of `CC(=O)N1CC[C@H]2CC[C@@H](C(=O)N3CCC[C@H]3c3ccccc3)N2C(=O)[C@@H](NC(=O)c2cc3cc(C(F)(F)P(=O)(O)O)ccc3[nH]2)C1` [Compound 162, ((2-(((5S,8S,10aR)-3-acetyl-6-oxo-8-((S)-2-phenylpyrrolidine-1-carbonyl)decahydropyrrolo[1,2-a][1,5]diazocin-5-yl)carbamoyl)-1H-indol-5-yl)difluoromethyl)phosphonic acid], the half-inhibitory concentration (IC50) was in the range of 1 to 10 µM in test [1] and 0.3 to 3 µM in test [2].
With `CC(=O)N1CC[C@H]2CC[C@@H](C(=O)N3CCC[C@H]3Cc3ccccc3)N2C(=O)[C@@H](NC(=O)c2cc3cc(C(F)(F)P(=O)(O)O)ccc3[nH]2)C1` [Compound 163, ((2-(((5S,8S,10aR)-3-acetyl-8-((S)-2-benzylpyrrolidine-1-carbonyl)-6-oxodecahydropyrrolo[1,2-a][1,5]diazocin-5-yl)carbamoyl)-1H-indol-5-yl)difluoromethyl)phosphonic acid], the values for the IC50 in test [1] and in test [2] were 1 to 10 µM and 0.3 to 3 µM, respectively.
On to `COc1ccccc1N(C)C(=O)[C@@H]1CC[C@@H]2CCN(C(C)=O)C[C@H](NC(=O)c3cc4cc(C(F)(F)P(=O)(O)O)ccc4[nH]3)C(=O)N21` [Compound 164, ((2-(((5S,8S,10aR)-3-acetyl-8-((2-methoxyphenyl)(methyl)carbamoyl)-6-oxodecahydropyrrolo[1,2-a][1,5]diazocin-5-yl)carbamoyl)-1H-indol-5-yl)difluoromethyl)phosphonic acid], for which the half-maximal inhibitory concentration (IC50) in test [1] was in the range of 1 to 10 µM; in test [2], 0.3 to 3 µM.
On to `COc1cccc(N(C)C(=O)[C@@H]2CC[C@@H]3CCN(C(C)=O)C[C@H](NC(=O)c4cc5cc(C(F)(F)P(=O)(O)O)ccc5[nH]4)C(=O)N32)c1` [Compound 165, ((2-(((5S,8S,10aR)-3-acetyl-8-((3-methoxyphenyl)(methyl)carbamoyl)-6-oxodecahydropyrrolo[1,2-a][1,5]diazocin-5-yl)carbamoyl)-1H-indol-5-yl)difluoromethyl)phosphonic acid], for which the half-maximal inhibitory concentration (IC50) in test [1] lay within 1 to 10 µM; in test [2] it was 0.3 to 3 µM.
For `COc1ccc(N(C)C(=O)[C@@H]2CC[C@@H]3CCN(C(C)=O)C[C@H](NC(=O)c4cc5cc(C(F)(F)P(=O)(O)O)ccc5[nH]4)C(=O)N32)cc1` [Compound 166, ((2-(((5S,8S,10aR)-3-acetyl-8-((4-methoxyphenyl)(methyl)carbamoyl)-6-oxodecahydropyrrolo[1,2-a][1,5]diazocin-5-yl)carbamoyl)-1H-indol-5-yl)difluoromethyl)phosphonic acid], the IC50 in test [1] was in the range of 1 to 10 µM; in test [2], 0.3 to 3 µM.
Take `CC(=O)N1CC[C@H]2CC[C@@H](C(=O)N(C)c3cccc(C#N)c3)N2C(=O)[C@@H](NC(=O)c2cc3cc(C(F)(F)P(=O)(O)O)ccc3[nH]2)C1` [Compound 167, ((2-(((5S,8S,10aR)-3-acetyl-8-((3-cyanophenyl)(methyl)carbamoyl)-6-oxodecahydropyrrolo[1,2-a][1,5]diazocin-5-yl)carbamoyl)-1H-indol-5-yl)difluoromethyl)phosphonic acid]: the 50% inhibitory concentration (IC50) in test [1] lay within 1 to 10 µM; in test [2], 0.3 to 3 µM.
On the same counts, the results for `CC(=O)N1CC[C@H]2CC[C@@H](C(=O)N(C)c3ccc(C#N)cc3)N2C(=O)[C@@H](NC(=O)c2cc3cc(C(F)(F)P(=O)(O)O)ccc3[nH]2)C1` [Compound 168, ((2-(((5S,8S,10aR)-3-acetyl-8-((4-cyanophenyl)(methyl)carbamoyl)-6-oxodecahydropyrrolo[1,2-a][1,5]diazocin-5-yl)carbamoyl)-1H-indol-5-yl)difluoromethyl)phosphonic acid] are 1 to 10 µM and 0.3 to 3 µM.
